{
  "source": "patent US20080293931A1",
  "about": "“Methods and compositions for the removal of nucleic acid amplification inhibitors” (priority 2006, published 2008)",
  "key": {"[1]": {"test": "Humic acid (HA) removal from aqueous commercial HA solutions by PIR compounds, fluorimetric HA determination", "set-up": "key to ε values: ε = −log(1 − efficiency); efficiency = ([HA]i − [HA]f)/[HA]i", "conditions": "for performance as PIR compound (in words): commercial humic acid solutions; for Average Efficiency, ε / Avg Reduction Factor: aqueous humic samples seeded with E. coli DNA", "procedure": "Humic solutions were in 1×TAE buffer at RT with pH˜7. […] Samples from PIR experiments utilizing these materials were diluted, using 1×TAE, to concentrations falling within the linear response region representative of the humic material used.\nIn this study, when samples were interrogated for humic acid concentrations via fluorimetry, known concentrations of commercial humic acids were compared to known concentrations of humic standards.\nFIG. 1 compares the HA removal from samples containing DNA of interest to the molar concentration of varied PIR compounds by plotting an HA reduction factor as the initial [HA] divided by [HA] following treatment with PIR compounds. The commercially available PIR kit, from Mo-BIO, is placed on FIG. 1 for comparison and was arbitrarily assigned a molar concentration of 1 for convenience. […] The data shown in FIG. 1 were generated from varied initial [HA], ranging from ˜5,000 to 300,000 mg/L HA. These varied initial [HA] values represent a “worst case” scenario and these are in comparison to initial [HA] in extractions from problematic soils generating humic acid concentrations typically less than 5,000 mg/L.\nFIG. 2 plots the data from the same experiments represented in FIG. 1, but applying a different approach for data metric. FIG. 2 plots a dimensionless HA removal efficiency (or efficacy) value versus the decade of dilution necessary for successful PCR. The efficiency of HA removal is defined in equation 1 as the initial [HA] minus the final [HA] divided by the initial [HA]. This is essentially a percent removal approach.\nEfficiency=[HA]i−[HA]f/[HA]; (1)\nTo further discriminate efficiency values greater than 0.99, the efficiency was subtracted from the integer value of 1, and the −log was taken of 1-efficiency to generate a non-negative value indicative of HA removal efficiency with greater level of discrimination and resolution of values with high degrees of HA removal. This is described by equation 2."}, "E. coli DNA": {"tested_on": "E. coli DNA", "test": "PCR of seeded E. coli DNA after PIR treatment of aqueous HA samples (decade of dilution necessary for successful PCR)", "conditions": "for Typical dilution decade for PCR / range of dilutions (dilution decade for PCR): aqueous humic samples seeded with E. coli DNA; for Decade of dilution: 30 days storage, HA avg ~10,000 mg/L", "procedure": "Consideration of dilution factors for successful PCR must also be reviewed. In untreated soil extracts containing DNA of interest, successful PCR of the extracted DNA may occur when the polymerase inhibitor is diluted sufficiently such that inhibition is suppressed and PCR may occur. Typical values for the dilution decade at which PCR is successful in samples containing humic materials and DNA of interest are often around decade four (1×10^4). Accordingly, a dilution factor of 10,000 would be necessary for successful PCR in a typical soil extract/sample. This magnitude of dilution may also impact PCR sensitivity for DNA/species already present at low concentrations and result in not identifying an organism that was present in the original sample extract.\nUsing this approach for presenting the HA removal data allows for the determination of a PIR compound's effectiveness for HA removal (ε) and compatibility for application in PCR systems via dilution data for PCR."}, "[2]": {"test": "Solubility of PIR compounds in aqueous solution", "assay_type": "physicochemical", "conditions": "for solubility: aqueous solution"}, "[3]": {"conditions": "PIR 1 M, HAi avg 6,500-12,300 depending on compound (Table 6 c2)"}, "[4]": {"conditions": "4.0 M AMG in phosphate buffer, 30 days storage, 4 C., dark, HA avg ~10,000 mg/L"}, "[5]": {"conditions": "4.0 M AMG in phosphate buffer, 30 days storage, 25 C., dark, HA avg ~10,000 mg/L"}, "[6]": {"conditions": "4.0 M AMG in phosphate buffer, 30 days storage, 25 C., light, HA avg ~10,000 mg/L"}, "[7]": {"conditions": "4.0 M AMG in phosphate buffer, 30 days storage, −20 C., dark, HA avg ~10,000 mg/L"}, "[8]": {"conditions": "5.5 M AMG in phosphate buffer, 30 days storage, 4 C., dark, HA avg ~10,000 mg/L"}, "[9]": {"conditions": "5.5 M AMG in phosphate buffer, 30 days storage, 25 C., dark, HA avg ~10,000 mg/L"}, "[10]": {"conditions": "5.5 M AMG in phosphate buffer, 30 days storage, 25 C., light, HA avg ~10,000 mg/L"}, "[11]": {"conditions": "5.5 M AMG in phosphate buffer, 30 days storage, −20 C., dark, HA avg ~10,000 mg/L"}},
  "note": "“Also recorded” adds a separate entry of the source. Where two headings read alike, the source gives them in different places.",
  "data": [
    {"compound": "CC(=O)C[n+]1ccsc1", "values": [
      {"measurement": "performance as PIR compound (in words)", "setting": "[1]", "value": "did not perform well"}
    ]},
    {"compound": "1-thiazole-2-propanone bromide [BAT]", "values": [
      {"measurement": "Average Efficiency, ε", "setting": "[1]; [3]", "value": 0.51},
      {"measurement": "Avg Reduction Factor", "setting": "[1]; [3]", "value": 3},
      {"measurement": "performance as PIR compound (in words)", "setting": "[1]", "value": "poor performance"},
      {"measurement": "Typical dilution decade for PCR", "setting": "E. coli DNA; [3]", "value": 4},
      {"measurement": "range of dilutions (dilution decade for PCR)", "setting": "E. coli DNA; [3]", "value": "3-4"}
    ]},
    {"compound": "N=C(N)NN", "note": "[AMG, Aminoguanidine, reference compound]", "values": [
      {"measurement": "HA reduction factor", "setting": "[1]; [4]", "value": 7},
      {"measurement": "ε values", "setting": "[1]; [4]", "value": 0.83},
      {"measurement": "HA reduction factor", "setting": "[1]; [5]", "value": 6},
      {"measurement": "ε values", "setting": "[1]; [5]", "value": 0.81},
      {"measurement": "HA reduction factor", "setting": "[1]; [6]", "value": 6},
      {"measurement": "ε values", "setting": "[1]; [6]", "value": 0.80},
      {"measurement": "HA reduction factor", "setting": "[1]; [7]", "value": 4},
      {"measurement": "ε values", "setting": "[1]; [7]", "value": 0.65},
      {"measurement": "ε values", "setting": "[1]; 4.0M AMG, 30 days storage", "value": "less than 1"},
      {"measurement": "HA reduction factor", "setting": "[1]; [8]", "value": 14},
      {"measurement": "ε values", "setting": "[1]; [8]", "value": 1.15},
      {"measurement": "HA reduction factor", "setting": "[1]; [9]", "value": 15},
      {"measurement": "ε values", "setting": "[1]; [9]", "value": 1.16},
      {"measurement": "HA reduction factor", "setting": "[1]; [10]", "value": 19},
      {"measurement": "ε values", "setting": "[1]; [10]", "value": 1.13},
      {"measurement": "HA reduction factor", "setting": "[1]; [11]", "value": 19},
      {"measurement": "ε values", "setting": "[1]; [11]", "value": 1.28},
      {"measurement": "ε values", "setting": "[1]; 5.5 M AMG, 30 days storage", "value": "less than 1.3"},
      {"measurement": "Typical HA reduction factors", "setting": "[1]; AMG 4.0 and 5.5 M, 30 days storage, HA ~10,000 mg/L", "value": "less than 20"},
      {"measurement": "Average Efficiency, ε", "setting": "[1]; PIR 4 M, HAi avg 35,000", "value": 0.77},
      {"measurement": "Avg Reduction Factor", "setting": "[1]; PIR 4 M, HAi avg 35,000", "value": 6},
      {"measurement": "performance as PIR compound (in words)", "setting": "[1]", "value": "poor performance"},
      {"measurement": "Decade of dilution", "setting": "E. coli DNA; 4.0 M AMG in phosphate buffer, 4 C., dark", "value": 2},
      {"measurement": "Decade of dilution", "setting": "E. coli DNA; 4.0 M AMG in phosphate buffer, 25 C., dark", "value": 2},
      {"measurement": "Decade of dilution", "setting": "E. coli DNA; 4.0 M AMG in phosphate buffer, 25 C., light", "value": 2},
      {"measurement": "Decade of dilution", "setting": "E. coli DNA; 4.0 M AMG in phosphate buffer, −20 C., dark", "value": 2},
      {"measurement": "Decade of dilution", "setting": "E. coli DNA; 5.5 M AMG in phosphate buffer, 4 C., dark", "value": 2},
      {"measurement": "Decade of dilution", "setting": "E. coli DNA; 5.5 M AMG in phosphate buffer, 25 C., dark", "value": 2},
      {"measurement": "Decade of dilution", "setting": "E. coli DNA; 5.5 M AMG in phosphate buffer, 25 C., light", "value": 2},
      {"measurement": "Decade of dilution", "setting": "E. coli DNA; 5.5 M AMG in phosphate buffer, −20 C., dark", "value": 2},
      {"measurement": "Typical dilution decade for PCR", "setting": "E. coli DNA; PIR 4 M, HAi avg 35,000", "value": 4},
      {"measurement": "range of dilutions (dilution decade for PCR)", "setting": "E. coli DNA; PIR 4 M, HAi avg 35,000", "value": "3-4"},
      {"measurement": "dilution required for successful PCR products", "setting": "E. coli DNA; both 4.0 and 5.5 M AMG", "value": "2 orders of magnitude"}
    ]},
    {"compound": "Cc1ncc(C[n+]2csc(CCO[P@](=O)(O)OP(=O)(O)O)c2C)c(N)n1", "note": "[THI-PP, thiamine pyrophosphate]", "values": [
      {"measurement": "Average Efficiency, ε", "setting": "[1]; PIR 0.3 M, HAi avg 14,000", "value": 2.57},
      {"measurement": "Avg Reduction Factor", "setting": "[1]; PIR 0.3 M, HAi avg 14,000", "value": 384},
      {"measurement": "performance as PIR compound (in words)", "setting": "[1]", "value": "did not perform well; also recorded: poor performance"},
      {"measurement": "Typical dilution decade for PCR", "setting": "E. coli DNA; PIR 0.3 M, HAi avg 14,000", "value": 0},
      {"measurement": "range of dilutions (dilution decade for PCR)", "setting": "E. coli DNA; PIR 0.3 M, HAi avg 14,000", "value": "0-3"},
      {"measurement": "solubility", "setting": "[2]; aqueous solutions, read-out: solubility in aqueous solutions (molar solubility)", "value": 300, "unit": "mM"},
      {"measurement": "solubility", "setting": "[2]; starred values of column PIR, M (footnote of Table 6), read-out: maximum molar solubility", "value": 300, "unit": "mM"},
      {"measurement": "solubility in aqueous solutions (molar solubility)", "setting": "[2]; aqueous solutions", "value": "~300", "unit": "mM"}
    ]}
  ]
}
